# Results from patent US4542169A, “Biomedical devices containing isothiazolones to control bacteria growth” (Rohm and Haas Company, priority 1983, dated 1985).
# Structures can show the parent of a compound that is named as a salt.
# Columns and labels:
# [1] = system: Aerobasidium pullulans (A.p); experiment: Zone of inhibition, polyvinyl chloride film; assay type: cell-based; details: PVC film
# Solubility in H2O = assay type: physicochemical; details: water
# Aspergillis niger (A.n.) [2] = experiment: Growth of fungus on polyvinyl chloride film; assay type: cell-based; parameters: key: 0: zero (no growth); 5: five (heavy growth); details: PVC film
# Protocol: (§1) In a two-liter, three-necked, round-bottom, flask equipped with a mechanical stirrer was placed 100 g of polyvinyl chloride, 590 g of reagent grade tetrahydrofuran, and 40.0 g of dioctylphthalate. This was stirred with gentle heating (35°-40° C.) for two hours to completely dissolve the polyvinyl chloride. Then, a barium/calcium salt of a fatty acid (3.5 g), a phosphite chelating agent (1.5 g), stearic Acid (0.25 g) and epoxidized soy bean oil (7.5 g), were mixed with 21 g of tetrahydrofuran and added to the polyvinyl chloride solution. After stirring at room temperature for 30 minutes, the solution was ready for use.
# (§2) Films containing the isothiazolones were cast by first preparing a 0.5 weight percent polyvinyl chloride solution by adding the isothiazolone to the polyvinyl chloride solution. Then, portions of the 0.5% solution were diluted to 0.1 and 0.05%. The films were drawn down on 12"×12" glass plates using a 50 mil-3" wide coating bar and the films were allowed to air dry for 48 hours.
# (§3) In addition to zones of inhibition, the films were observed by growth of fungus on the film and rated from zero (no growth) to five (heavy growth).
# [3] = system: Aerobasidium pullulans (A.p); experiment: Growth of fungus on polyvinyl chloride film; assay type: cell-based; parameters: key: 0: zero (no growth); 5: five (heavy growth); details: PVC film
# Protocol: as §1, §2, §3
# Aspergillis niger (A.n.) [4] = experiment: Zone of inhibition, polyvinyl chloride film; assay type: cell-based; details: PVC film
# Echerichia coli (E.c.) = experiment: Zone of inhibition, polyvinyl chloride film discs on inoculated agar; assay type: cell-based; details: for Zone of Inhibition: PVC film; for Zones: PVC
# Protocol: as §1, §2
# (§4) The films were cut into 1.25 cm discs and placed in agar plates inoculated with Staphlococcus aureus (S.a) or Echerichia coli (E.c.).
# [5] = system: Staphlococcus aureus (S.a); experiment: as above; assay type: cell-based; details: for Zone of Inhibition: PVC film; for Zones: PVC
# Protocol: as §1, §2, §4
# P.a. = experiment: Zone of inhibition, silicone film; assay type: cell-based, Pseudomonas aeruginosa
# [6] = system: Pseudomonas aeruginosa (P.a.); experiment: Zone of inhibition, polyvinyl chloride (vinyl) film discs; assay type: cell-based; details: PVC
# Protocol: as §1, §4
# Discs were tested against Pseudomonas aeruginosa (P.a.). The 1.0% films gave a slight zone of inhibition while the 5.0% film gave a 1 mm zone of inhibition.
# E.c. = experiment: Zone of inhibition, silicone rubber film discs on inoculated agar; assay type: cell-based, Echerichia coli; details: for Zones: Silicone; for Zone of Inhibition: silicone rubber film
# Text: as §4
# (§5) The films were cut into discs and tested as in example one against S.a. and E.c.
# S.a. = experiment: as above; assay type: cell-based, Staphlococcus aureus; details: S.a.; for Zones: Silicone; for Zone of Inhibition: silicone rubber film
# Text: as §4, §5
# Staphylococcus aureus = experiment: Minimum inhibitory concentration, bacteriostatic activity; assay type: cell-based; details: Table III: Active Ingredient MIC
# Candida albicans (yeast) = experiment: Minimum inhibitory concentration, fungistatic activity; assay type: cell-based; details: Table III: Active Ingredient MIC
# Aureobasidium pullulans = experiment: as above; assay type: cell-based; details: Table III: Active Ingredient MIC
# Aspergillus niger = experiment: as above; assay type: cell-based; details: Table III: Active Ingredient MIC
# Pseudomonas aeruginosa = experiment: Minimum inhibitory concentration, bacteriostatic activity; assay type: cell-based; details: Table III: Active Ingredient MIC
# Escherichia coli = experiment: as above; assay type: cell-based; details: Table III: Active Ingredient MIC
structure (smiles),measurement,setting,value
"CCCCCCCn1sc(Cl)c(Cl)c1=O [Compound 6, 4,5-Dichloro-N--n-heptyl-isothiazolin-3-one]",Zone of Inhibition,[1]; 0.05%,3 mm
same,Zone of Inhibition,[1]; 0.1%,1 mm
same,Zone of Inhibition,[1]; 0.5%,0 mm
same,solubility,Solubility in H2O,25 µg/mL
same,Growth on Film,Aspergillis niger (A.n.) [2]; 0.05%,0
same,Growth on Film,Aspergillis niger (A.n.) [2]; 0.1%,0
same,Growth on Film,Aspergillis niger (A.n.) [2]; 0.5%,0
same,Growth on Film,[3]; 0.05%,3
same,Growth on Film,[3]; 0.1%,2
same,Growth on Film,[3]; 0.5%,0
same,Zone of Inhibition,Aspergillis niger (A.n.) [4]; 0.05%,0 mm
same,Zone of Inhibition,Aspergillis niger (A.n.) [4]; 0.1%,0 mm
same,Zone of Inhibition,Aspergillis niger (A.n.) [4]; 0.5%,0 mm
same,Zone of Inhibition,Echerichia coli (E.c.); 0.05%,0 mm
same,Zone of Inhibition,Echerichia coli (E.c.); 0.1%,0 mm
same,Zone of Inhibition,Echerichia coli (E.c.); 0.5%,0 mm
same,Zone of Inhibition,[5]; 0.05%,0 mm
same,Zone of Inhibition,[5]; 0.1%,1.3 mm
same,Zone of Inhibition,[5]; 0.5%,4.3 mm
"CN(C)C1C(=O)C(C(N)=O)=C(O)C2(O)C(=O)C3=C(O)c4c(O)cccc4C(C)(O)C3CC12 (stereo not drawn) [T, Tetracycline HCl, reference compound]",Zones,P.a.; 1.0%,0 mm
same,Zones,P.a.; 5.0%,0 mm
same,Zones,P.a.; .20%,0.3 mm
same,Zones,[6]; 1.0%,0 mm
same,Zones,[6]; 5.0%,0 mm
same,Zones,[6]; .04%,0 mm
same,Zones,[6]; .20%,0 mm
same,Zones,E.c.; 1.0%,9.8 mm
same,Zones,E.c.; 5.0%,19.8 mm
same,Zones,E.c.; .04%,0 mm
same,Zones,E.c.; .20%,5.8 mm
same,Zones,S.a.; 1.0%,21.3 mm
same,Zones,S.a.; 5.0%,26.3 mm
same,Zones,S.a.; .04%,6.3 mm
same,Zones,S.a.; .20%,15.8 mm
same,Zones,Echerichia coli (E.c.); 1.0%,0 mm
same,Zones,Echerichia coli (E.c.); .04%,0 mm
same,Zones,Echerichia coli (E.c.); .20%,5.8 mm
same,Zones,[5]; 1.0%,11.3 mm
same,Zones,[5]; 5.0%,19.8 mm
same,Zones,[5]; .04%,0 mm
same,Zones,[5]; .20%,0 mm
"O=c1c(Cl)c(Cl)sn1CCc1ccccc1 [Compound 3, 4,5-Dichloro-N-- 2-phenethyl-isothiazolin-3-one]",Zone of Inhibition,[1]; 0.05%,0 mm
same,Zone of Inhibition,[1]; 0.1%,0 mm
same,Zone of Inhibition,[1]; 0.5%,3.8 mm
same,solubility,Solubility in H2O,96 µg/mL
same,Growth on Film,Aspergillis niger (A.n.) [2]; 0.05%,1
same,Growth on Film,Aspergillis niger (A.n.) [2]; 0.1%,0
same,Growth on Film,Aspergillis niger (A.n.) [2]; 0.5%,0
same,Growth on Film,[3]; 0.05%,2
same,Growth on Film,[3]; 0.1%,0
same,Growth on Film,[3]; 0.5%,0
same,Zone of Inhibition,Aspergillis niger (A.n.) [4]; 0.05%,0 mm
same,Zone of Inhibition,Aspergillis niger (A.n.) [4]; 0.1%,0 mm
same,Zone of Inhibition,Aspergillis niger (A.n.) [4]; 0.5%,4.8 mm
same,Zone of Inhibition,Echerichia coli (E.c.); 0.05%,0 mm
same,Zone of Inhibition,Echerichia coli (E.c.); 0.1%,0 mm
same,Zone of Inhibition,Echerichia coli (E.c.); 0.5%,1.8 mm
same,Zone of Inhibition,[5]; 0.05%,1.8 mm
same,Zone of Inhibition,[5]; 0.1%,4.3 mm
same,Zone of Inhibition,[5]; 0.5%,10.8 mm
"CCCCCCCCn1sc(Cl)c(Cl)c1=O [Compound 5, 4,5-Dichloro-N--n-octyl-isothiazolin-3-one]",MIC,Staphylococcus aureus,4 µg/mL
same,Zone of Inhibition,[1]; 0.05%,0 mm
same,Zone of Inhibition,[1]; 0.1%,0 mm
same,Zone of Inhibition,[1]; 0.5%,0 mm
same,MIC,Candida albicans (yeast),5 µg/mL
same,MIC,Aureobasidium pullulans,5 µg/mL
same,Growth on Film,Aspergillis niger (A.n.) [2]; 0.05%,5
same,Growth on Film,Aspergillis niger (A.n.) [2]; 0.1%,3
same,Growth on Film,Aspergillis niger (A.n.) [2]; 0.5%,0
same,Growth on Film,[3]; 0.05%,5
same,Growth on Film,[3]; 0.1%,3
same,Growth on Film,[3]; 0.5%,1
same,MIC,Aspergillus niger,9 µg/mL
same,Zone of Inhibition,E.c.; Conc. 10,0 mm
same,Zone of Inhibition,E.c.; Conc. 100,0 mm
same,Zone of Inhibition,E.c.; Conc. 1000,0.8 mm
same,Zone of Inhibition,S.a.; Conc. 10,0 mm
same,Zone of Inhibition,S.a.; Conc. 100,1.8 mm
same,Zone of Inhibition,S.a.; Conc. 1000,8.8 mm
same,MIC,Pseudomonas aeruginosa,16 µg/mL
same,Zone of Inhibition,Aspergillis niger (A.n.) [4]; 0.05%,0 mm
same,Zone of Inhibition,Aspergillis niger (A.n.) [4]; 0.1%,0 mm
same,Zone of Inhibition,Aspergillis niger (A.n.) [4]; 0.5%,0 mm
same,MIC,Escherichia coli,16 µg/mL
same,Zone of Inhibition,Echerichia coli (E.c.); 0.05%,0 mm
same,Zone of Inhibition,Echerichia coli (E.c.); 0.1%,0 mm
same,Zone of Inhibition,Echerichia coli (E.c.); 0.5%,0 mm
same,Zone of Inhibition,[5]; 0.05%,0 mm
same,Zone of Inhibition,[5]; 0.1%,0.3 mm
same,Zone of Inhibition,[5]; 0.5%,3.3 mm
